How the values were obtained:
[1] = molecular target: ammonium channel (AmtB) (Escherichia coli, UniProt P69681); experiment: Mass spectra and ion mobility MS of AmtB complex in three detergents (Example 2); design: species or system E. coli; details: for experimental collisional cross section (CCS) / folded state: AmtB, IM-MS, CIU fingerprints, C8E4 at ELAB <1500; for species in mass spectrum (expected oligomer versus dissociation products): trimeric AmtB, sample cone 10 volts, collision voltage 200 volts
Experimental: (§1) AmtB-GFP and AQPZ-GFP were extracted from purified membranes in 2% OG in Buffer B and incubated overnight at 4° C. Extracted membrane proteins were clarified by centrifugation at 20,000 g for 25 minutes at 4° C. The clarified supernatant was filtered before loading onto a 5 mL HisTrap-HP column (GE Healthcare, Piscataway, NJ) equilibrated in Buffer E (200 mM sodium chloride, 10% glycerol, 20 mM Imidazole, 0.025% DDM, and 50 mM TRIS, pH 7.4 at room temperature). After the clarified supernatant was loaded, the column was initially washed with 40-50 mL of Buffer E containing 1% OG instead of DDM followed by several column volumes of Buffer E until a steady baseline was reached. Protein was eluted with a linear gradient to 100% in two column volumes of Buffer F (100 mM sodium chloride, 10% glycerol, 500 mM Imidazole, 0.025% DDM, and 50 mM TRIS, pH 7.4 at room temperature). Peak fractions were pooled, supplemented with 5mM BME and His-tagged TEV protease, arid dialyzed against Buffer G (150 mM sodium chloride, 10% glycerol, 20 mM Imidazole, 0.02% DDM, and 50 mM TRIS, pH 7.4 at room temperature) overnight at 4° C. After overnight incubation at 4° C., samples were filtered and passed back over a 5 mL. HisTrap-HP column equilibrated in Buffer E. Flow through containing the untagged membrane protein was collected and concentrated using a 100 kDa MWCO concentrator. Concentrated protein was flash frozen in liquid nitrogen and stored at -80° C.
(§2) Frozen samples were thawed on ice prior to detergent exchange over gel filtration. Samples were injected on a Superdex 200 10/300 (GE Healthcare) equilibrated in Buffer H (130 mM sodium chloride, 10% glycerol, and 50 mM TRIS, pH 7.4 at room temperature) supplemented with 0.5% of C8E4, 0.4% of NG, or 0.02% of DDM. Peak fractions were concentrated using a 100 kDa MWCO concentrator. Concentrated protein was either used directly or flash-frozen in liquid nitrogen and stored at −80° C. Purified membrane proteins were buffer exchanged into MS Buffer (2× CMC detergent of interest and 200 mM Ammonium Acetate, pH 8.0 with Ammonium Hydroxide) using a centrifugal buffer exchange device (Micro Bio-Spin 6, Bio-Rad).
(§3) Buffer exchanged protein was analysed on a quadrupole ion mobility time-of-flight mass spectrometer (Synapt HDMS, Waters Corp.) modified with an 18 cm drift cell with radial RF confinement (RF amplitude 200 V) and a linear voltage gradient along the axis of ion transmission such that collision cross section (CCS) values could be determined directly.
(§4) Mass spectra were acquired with instrument set to 10 volts for sample cone and 200 volts for collision voltage.
(§5) The preservation of native structure is most likely due to the charge reducing behaviour of C8E4, as well as other polyoxyalkylene glycol detergents, which results in a two to five fold reduction in activation energy. In addition, under ELAB values slightly greater than 1500, the CCS value increases consistent with partial unfolding. More importantly, gas-phase unfolding can be observed for these membrane complexes at ELAB values of 1750 to 2250. These gas-phase unfolding transitions can be altered in the presence of a drug molecule that stabilises protein structure, thereby enabling the detection of drug molecules that stabilise protein structure.

[2] = molecular target: Aquaporin Z (AQPZ) (Escherichia coli, UniProt P60844); experiment: Mass spectra and ion mobility MS of AQPZ complex in three detergents (Example 2); design: species or system E. coli; details: for experimental collisional cross section (CCS) / folded state: AQPZ, IM-MS, CIU fingerprints, C8E4 at ELAB <1500; for species in mass spectrum (expected oligomer versus dissociation products): tetrameric AQPZ, sample cone 10 volts, collision voltage 200 volts
Chain of Aquaporin Z (AQPZ) (P60844 whole entry): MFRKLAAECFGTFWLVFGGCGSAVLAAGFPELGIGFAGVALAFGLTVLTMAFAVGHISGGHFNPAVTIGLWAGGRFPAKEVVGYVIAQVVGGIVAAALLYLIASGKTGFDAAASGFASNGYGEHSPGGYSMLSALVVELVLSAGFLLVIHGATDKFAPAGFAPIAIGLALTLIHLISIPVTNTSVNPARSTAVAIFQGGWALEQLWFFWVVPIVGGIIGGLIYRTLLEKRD
Experimental: as §1, §2, §3, §4, §5

[3] = molecular target: E. coli ammonium channel C-terminally fused to green fluorescent protein (AmtB-GFP) (Escherichia coli, UniProt P69681, S65T); details: AmtB-GFP trimer in MS buffer with 2x CMC of the detergent; charge state envelopes modelled with a Gaussian
Experimental: The activation energy required to achieve resolved peaks of E. coli ammonium channel C-terminally fused to green fluorescent protein (AmtB-GFP) was assessed for a variety of non-ionic detergents.
AmtB-GFP was extracted from purified membranes (described above) with 1-2% (w/v) of the detergent of interest in Buffer B and incubated for one to three hours at room temperature or overnight at 4° C. Insoluble material was pelleted by centrifugation at 20,000 g for 25 minutes at 4° C. The clarified supernatant was loaded onto small Ni-NTA agarose (Qiagen) drip columns (Bio-spin Chromatography columns, Bio-Rad) and washed with several column volumes of Buffer C (200 mM sodium chloride, 20 mM Imidazole, 5 mM BME, 2× CMC detergent of interest, and 50 mM TRIS, pH 8.0 at room temperature). AmtB-GFP was eluted with two column volumes of Buffer D (100 mM sodium chloride, 250 mM Imidazole, 5 mM BME, 2× CMC detergent of interest, and 50 mM TRIS, pH 8.0 at room temperature). Eluted protein was concentrated using a 100 kDa MWCO concentrator and buffer exchanged into MS Buffer (2× CMC detergent of interest and 200 mM Ammonium Acetate, pH 8.0 with Ammonium Hydroxide) using a centrifugal buffer exchange device (Micro Bio-Spin 6, Bio-Rad).
Buffer exchanged protein was analysed on a Q-TOF 2 mass spectrometer (Micromass, Manchester, UK) with a Z-spray source including modifications for protein complexes after introduction of complexes from gold-coated nanoflow capillaries.

CCCCCCCCCCCCO[C@@H]1O[C@H](CO)[C@@H](O[C@H]2O[C@H](CO)[C@@H](O)[C@H](O)[C@H]2O)[C@H](O)[C@H]1O [DDM, n-Dodecyl-β-D-maltoside]
experimental collisional cross section (CCS) / folded state [1]: all unfolded CCS values | species in mass spectrum (expected oligomer versus dissociation products) [1]: mainly dissociation products | experimental collisional cross section (CCS) / folded state [2]: all unfolded CCS values | species in mass spectrum (expected oligomer versus dissociation products) [2]: mainly dissociation products | Zavg (mean charge state) [3]: 30.4

CCCCCCCCOCCOCCOCCOCCO [C8E4, tetraethylene glycol monooctyl ether]
experimental collisional cross section (CCS) / folded state [1]: consistent with calculated CCS values from their respective crystal structure | species in mass spectrum (expected oligomer versus dissociation products) [1]: no observable dissociation products | experimental collisional cross section (CCS) / folded state [2]: consistent with calculated CCS values from their respective crystal structure | species in mass spectrum (expected oligomer versus dissociation products) [2]: no observable dissociation products | Zavg (mean charge state) [3]: 21.3

CCCCCCCCCO[C@@H]1O[C@H](CO)[C@@H](O)[C@H](O)[C@H]1O [NG, n-Nonyl-β-D-glucopyranoside]
experimental collisional cross section (CCS) / folded state [1]: no CCS could be observed indicating native structure | species in mass spectrum (expected oligomer versus dissociation products) [1]: mainly dissociation products | experimental collisional cross section (CCS) / folded state [2]: the complex is unfolded | species in mass spectrum (expected oligomer versus dissociation products) [2]: mainly dissociation products | Zavg (mean charge state) [3]: 30.4

From patent publication US20150346214A1, “DETECTION OF MEMBRANE PROTEINS” (priority 2012, published 2015)
